Measurements as given in patent US20160106711A1, “3-3-Di-Substituted-Oxindoles as Inhibitors of Translation Initiation” (President and Fellows of Harvard College, priority 2012, published 2016).

Each molecule was assayed on KLN (assay: Cell growth assay (sulforhodamine B), KLN cells). Details: Mus musculus, 120 h, 5 days, SRB.
Assay type: cell-based, mouse
Procedure: […] Plates were then incubated with 0.4% SRB in 1% acetic acid for 1 h, washed with 1% acetic acid to remove the unbound dye, and air-dried. The bound dye was solubilized by addition of 10 mM Tris (pH 10), and the absorbance was determined in a Titertek Multiscan plate reader at 490 nm. The data calculations were carried out as described (the values for mean±SD of data from replicate wells are calculated): data are expressed in terms of % T/C [(OD of treated cells/OD of control cells)×100], as a measure of cell viability and survival in the presence of test materials. Calculations are also made for the concentration of test agents giving a T/C value of 50%, or 50% growth inhibition (IC50). With the SRB assay, a measure is made of the cell population density at time 0 (the time at which drugs are added) from two extra reference plates of inoculated cells fixed with TCA just prior to drug addition to the test plates. Thus, we have three measurements: control optical density (C), test optical density (T), and optical density at time zero (T0). The calculation is 100×[(T−T0)/(C−T0)]. If T is less than T0, cell killing has occurred and can be calculated from 100×[(T−T0)/T0]. Thus, for each drug-cell line combination, a dose-response curve is generated and three levels of effect are calculated.

Question: For `CN(C)CCOc1ccc(C(C)(C)C)cc1C1(c2cc(C(C)(C)C)ccc2O)C(=O)N(CCN(C)C)c2ccccc21` (stereo not drawn) [HY277], which IC50 is on record?
Answer: 0.3 ± 0.1 µM

Question: How did the IC50 turn out when `CC(C)(C)c1cccc(C2(c3cc(C(C)(C)C)ccc3O)C(=O)N(CCBr)c3ccccc32)c1` (stereo not drawn) [HY283] was run?
Answer: > 20 µM

Question: `CCN(CC)CCOc1ccc(C(C)(C)C)cc1C1(c2cc(C(C)(C)C)ccc2OCCN(CC)CC)C(=O)N(CCN(CC)CC)c2ccccc21` [HY296] was tested. Which IC50 did it give?
Answer: 1.6 ± 0.5 µM

Question: Which IC50 does the source give for `CCN(C)CCOc1ccc(C(C)(C)C)cc1C1(c2cc(C(C)(C)C)ccc2O)C(=O)Nc2ccccc21` (stereo not drawn) [HY301] here?
Answer: 4.6 ± 1.2 µM

Question: For `CC(C)(C)c1ccc(OCCN2CCNCC2)c(C2(c3cc(C(C)(C)C)ccc3OCCN3CCNCC3)C(=O)Nc3ccccc32)c1` [HY401], which IC50 is on record?
Answer: 10.6 ± 0.9 µM

Question: How did the IC50 turn out when `CN1CCN(CCOc2ccc(C(C)(C)C)cc2C2(c3cc(C(C)(C)C)ccc3OCCN3CCN(C)CC3)C(=O)Nc3ccccc32)CC1` [HY413] was run?
Answer: 0.85 ± 0.02 µM

Each molecule was assayed on CRL-2813 (assay: Cell growth assay (sulforhodamine B), CRL-2813 cells). Details: Homo sapiens, CRL2813, 120 h, 5 days, SRB.
Assay type: cell-based, human
Procedure: (§1) Adherent mouse (KLN) and human solid tumor cells (CRL-2351, and CRL-2813) were plated in 96-well plates and maintained for 5 days in the presence of 0.54 to 6 μM of individual compound, and cell proliferation was measured by the sulforhodamine B (SRB) assay as described in ref. 11: briefly, cells were fixed in 10% cold trichloroacetic acid at 4° C. for 1 h, extensively washed with double-distilled H2O and air-dried. Plates were then incubated with 0.4% SRB in 1% acetic acid for 1 h, washed with 1% acetic acid to remove the unbound dye, and air-dried. The bound dye was solubilized by addition of 10 mM Tris (pH 10), and the absorbance was determined in a Titertek Multiscan plate reader at 490 nm. The data calculations were carried out as described (the values for mean±SD of data from replicate wells are calculated): data are expressed in terms of % T/C [(OD of treated cells/OD of control cells)×100], as a measure of cell viability and survival in the presence of test materials. Calculations are also made for the concentration of test agents giving a T/C value of 50%, or 50% growth inhibition (IC50). With the SRB assay, a measure is made of the cell population density at time 0 (the time at which drugs are added) from two extra reference plates of inoculated cells fixed with TCA just prior to drug addition to the test plates. Thus, we have three measurements: control optical density (C), test optical density (T), and optical density at time zero (T0). The calculation is 100×[(T−T0)/(C−T0)]. If T is less than T0, cell killing has occurred and can be calculated from 100×[(T−T0)/T0]. Thus, for each drug-cell line combination, a dose-response curve is generated and three levels of effect are calculated.

Question: With `CN(C)CCOc1ccc(C(C)(C)C)cc1C1(c2cc(C(C)(C)C)ccc2O)C(=O)N(CCN(C)C)c2ccccc21` (stereo not drawn) [HY277] as the molecule, how does the IC50 read?
Answer: 0.9 ± 0.1 µM

Question: For `CC(C)(C)c1cccc(C2(c3cc(C(C)(C)C)ccc3O)C(=O)N(CCBr)c3ccccc32)c1` (stereo not drawn) [HY283], which IC50 is on record?
Answer: 1.4 ± 0.4 µM

Question: Which IC50 does the source give for `CCN(CC)CCOc1ccc(C(C)(C)C)cc1C1(c2cc(C(C)(C)C)ccc2OCCN(CC)CC)C(=O)N(CCN(CC)CC)c2ccccc21` [HY296] here?
Answer: 0.72 ± 0.23 µM

Question: For `CCN(C)CCOc1ccc(C(C)(C)C)cc1C1(c2cc(C(C)(C)C)ccc2O)C(=O)Nc2ccccc21` (stereo not drawn) [HY301], which IC50 is on record?
Answer: 1.5 ± 0.7 µM

Question: With `CC(C)(C)c1ccc(OCCN2CCNCC2)c(C2(c3cc(C(C)(C)C)ccc3OCCN3CCNCC3)C(=O)Nc3ccccc32)c1` [HY401] as the molecule, how does the IC50 read?
Answer: 1.5 ± 0.9 µM

Question: With `CN1CCN(CCOc2ccc(C(C)(C)C)cc2C2(c3cc(C(C)(C)C)ccc3OCCN3CCN(C)CC3)C(=O)Nc3ccccc32)CC1` [HY413] as the molecule, how does the IC50 read?
Answer: 0.74 ± 0.01 µM

These molecules were tested on CRL-2351 (assay: Cell growth assay (sulforhodamine B), CRL-2351 cells). Details: Homo sapiens, 120 h, 5 days, SRB.
Assay type: cell-based, human
Procedure: as §1

Question: With `CN(C)CCOc1ccc(C(C)(C)C)cc1C1(c2cc(C(C)(C)C)ccc2O)C(=O)N(CCN(C)C)c2ccccc21` (stereo not drawn) [HY277] as the molecule, how does the IC50 read?
Answer: 0.3 ± 0.11 µM

Question: Which IC50 does the source give for `CC(C)(C)c1cccc(C2(c3cc(C(C)(C)C)ccc3O)C(=O)N(CCBr)c3ccccc32)c1` (stereo not drawn) [HY283] here?
Answer: 1.5 ± 0.7 µM

Question: `CCN(CC)CCOc1ccc(C(C)(C)C)cc1C1(c2cc(C(C)(C)C)ccc2OCCN(CC)CC)C(=O)N(CCN(CC)CC)c2ccccc21` [HY296] was tested. Which IC50 did it give?
Answer: 0.59 ± 0.26 µM

Question: With `CCN(C)CCOc1ccc(C(C)(C)C)cc1C1(c2cc(C(C)(C)C)ccc2O)C(=O)Nc2ccccc21` (stereo not drawn) [HY301] as the molecule, how does the IC50 read?
Answer: 0.9 ± 0.2 µM

Question: With `CC(C)(C)c1ccc(OCCN2CCNCC2)c(C2(c3cc(C(C)(C)C)ccc3OCCN3CCNCC3)C(=O)Nc3ccccc32)c1` [HY401] as the molecule, how does the IC50 read?
Answer: 0.8 ± 0.1 µM

Question: For `CN1CCN(CCOc2ccc(C(C)(C)C)cc2C2(c3cc(C(C)(C)C)ccc3OCCN3CCN(C)CC3)C(=O)Nc3ccccc32)CC1` [HY413], which IC50 is on record?
Answer: 0.2 ± 0.08 µM

What follows are molecules tested on eIF2•GTP•Met-tRNAi ternary complex (assay: Ternary complex assay (ATF-4 assay), dual luciferase firefly/renilla ratio). Details: Mus musculus, 2.5 uM, read-out: ATF-4 Xmax.
Assay type: cell-based, mouse
Text: For assay development, a bi-directional plasmid was designed in which a common promoter/enhancer complex drives the transcription of firefly luciferase (F-luc) ORF fused to the 5′ untranslated region (UTR) of ATF-4, and of the renilla luciferase (R-luc) ORF fused to a 90-nucleotide 5′ UTR derived from the plasmid (FIG. 6A). Because the tetracycline-regulated transactivator ((tTA), required for driving transcription from this vector) is not normally expressed in the mammalian cells, stable KLN cancer cells were constructed that expressed tTA (KLN-tTA).
The KLN-tTA colonies that drove expression of reporter genes from pBISA-DL plasmid were selected by transient transfection and dual luciferase assay. One of these KLN-tTA cell lines was transfected with the pBISA-DL^(ATF-4) expression vector, stable colonies were selected by dual luciferase assay and expanded.
Plasmids and Ternary Complex Assay
(ATF-4 Assay). Briefly, bi-directional mammalian expression vector pBI (Clontech, CA) was modified to expand the multiple cloning sites (MCSs) and designated thereafter as pBISA. This vector contains seven copies of the tetracycline-regulated transactivator response element (TRE), which together act as core promoter/enhancer. The TRE is flanked on both sides by minimal human cytomegalovirus (CMV) minimal promoters allowing bi-directional transcription and two MCSs. Firefly and renilla luciferases were subcloned into MCS-I and MCS-II, respectively. This plasmid, designated pBISA-DL, transcribes two mRNAs that contain the 90 nucleotide plasmid derived 5′UTR (same sequence in both mRNAs), and the ORF encoding either firefly or renilla luciferase followed by a polyadenylation sequence as described in Ziegeler, G.; Ming, J.; Koseki, J. C.; Sevinc, S.; Chen, T.; Ergun, S.; Qin, X.; Aktas, B. H. J. Biol. Chem. 2010, 285, 15408 hereby incorporated by reference. This plasmid was further modified by inserting the 5′UTR of ATF-4 into MCS-I in front of the firefly luciferase mRNA. Transcription from this direction generates an mRNA that contains the firefly luciferase ORF preceded by a 5′UTR composed of 90 nucleotides derived from the plasmid and 267 nucleotides derived from the 5′UTR of ATF-4 mRNA. Transcription from the other direction generates an mRNA that contains the renilla luciferase ORF proceeded only by the 90-nucleotide plasmid-derived sequence in the 5′UTR. This expression plasmid is called pBISA-DL(ATF-4). In the dual luciferase assay, cells expressing firefly and renilla luciferases were lysed and the extracts assayed with a Dual-Glo Luciferase assay kit, per manufacturer's instruction (Promega Inc., Madison, Wis.). The data calculations were carried out as the ratio of firefly to renilla luciferase signal as described in Chen, T.; Ozel, D.; Qiao, Y.; Harbinski, F.; Chen, L.; Denoyelle, S.; He, X.; Zvereva, N.; Supko, J. G.; Chorev, M.; Halperin, J. A.; Aktas, B. H. Nat. Chem. Biol. 2011, 7, 610 hereby incorporated by reference.

Question: For `CCN(CC)CCOc1ccc(C(C)(C)C)cc1C1(c2cc(C(C)(C)C)ccc2OCCN(CC)CC)C(=O)N(CCN(CC)CC)c2ccccc21` [HY296], which maximal fold induction at 2.5 µM is on record?
Answer: 14.3 ± 0.78

Same assay, conditions: Mus musculus, 10 uM, read-out: ATF-4 Xmax

Question: Which maximal fold induction at 10 µM does the source give for `CN(C)CCOc1ccc(C(C)(C)C)cc1C1(c2cc(C(C)(C)C)ccc2O)C(=O)N(CCN(C)C)c2ccccc21` (stereo not drawn) [HY277] here?
Answer: 14.3 ± 1.86

Question: Which maximal fold induction at 10 µM does the source give for `CN1CCN(CCOc2ccc(C(C)(C)C)cc2C2(c3cc(C(C)(C)C)ccc3OCCN3CCN(C)CC3)C(=O)Nc3ccccc32)CC1` [HY413] here?
Answer: 9.7 ± 3.8

Same assay, conditions: Mus musculus, 20 uM, read-out: ATF-4 Xmax

Question: `CCN(C)CCOc1ccc(C(C)(C)C)cc1C1(c2cc(C(C)(C)C)ccc2O)C(=O)Nc2ccccc21` (stereo not drawn) [HY301] was tested. Which maximal fold induction at 20 µM did it give?
Answer: 15.1 ± 1.04

Same assay, conditions: Mus musculus, at 40 uM, read-out: ATF-4 Xmax @ 40 μM

Question: Which maximal fold induction at 40 µM does the source give for `CC(C)(C)c1cccc(C2(c3cc(C(C)(C)C)ccc3O)C(=O)N(CCBr)c3ccccc32)c1` (stereo not drawn) [HY283] here?
Answer: 9.6 ± 0.16

Question: For `CC(C)(C)c1ccc(OCCN2CCNCC2)c(C2(c3cc(C(C)(C)C)ccc3OCCN3CCNCC3)C(=O)Nc3ccccc32)c1` [HY401], which maximal fold induction at 40 µM is on record?
Answer: 11.4 ± 0.65
